What all share (assay type): cell-based
The target in one assay is hGLP-1R (Homo sapiens, UniProt P43220). Kind of assay: Functional cAMP formation (HTRF) in HEK-293 clonal cells expressing hGLP-1R, 0.1% bovine casein, without or with 1.0% human serum albumin. Details: expressed in transfected cells. As to conditions: 37° C.; for Emax: HEK293, cAMP, 0.1% bovine casein, percent of maximal response to GLP-1(7-36)NH2, arithmetic mean, read-out: hGLP-1R Emax, % ± SEM. In a few lines:
(§1)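 Readings of the HTRF 665/620 nm ratio, which falls as cAMP rises, were converted to nM cAMP using a standard curve after 30 min peptide exposure at 37° C.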

In another assay the target is T1, hGIPR (Homo sapiens, UniProt P48546).
T1 construct: expressed in transfected cells
T1 sequence (P48546 22-466): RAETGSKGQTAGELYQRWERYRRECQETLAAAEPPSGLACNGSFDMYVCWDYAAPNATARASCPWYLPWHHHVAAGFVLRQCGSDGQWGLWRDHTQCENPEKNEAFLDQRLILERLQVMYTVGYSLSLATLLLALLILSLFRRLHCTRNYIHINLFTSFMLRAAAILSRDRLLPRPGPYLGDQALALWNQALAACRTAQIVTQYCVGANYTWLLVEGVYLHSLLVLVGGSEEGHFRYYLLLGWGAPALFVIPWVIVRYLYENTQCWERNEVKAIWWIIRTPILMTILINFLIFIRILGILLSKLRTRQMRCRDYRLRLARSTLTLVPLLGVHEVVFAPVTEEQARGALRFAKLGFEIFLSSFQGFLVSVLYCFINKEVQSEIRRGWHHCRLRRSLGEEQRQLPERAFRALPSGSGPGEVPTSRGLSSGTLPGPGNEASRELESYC
Kind of assay: Functional cAMP formation (HTRF) in HEK-293 clonal cells expressing hGIPR, 0.1% bovine casein, without or with 1.0% human serum albumin. As to conditions: for EC50: geometric mean. In a few lines: as §1
On the technique in general: cAMP levels reflect the balance of adenylyl cyclase and phosphodiesterase activity.

For another assay, the target named is T2, hGCGR (Homo sapiens, UniProt P47871).
T2 construct: expressed in transfected cells
Kind of assay: Functional cAMP formation (HTRF) in HEK-293 clonal cells expressing hGCGR, 0.1% bovine casein, without or with 1.0% human serum albumin. In a few lines: as §1

[1] abbreviates: cAMP, 0.1% bovine casein (no human serum albumin), geometric mean, read-out: hGLP-1R EC50, nM (SEM, n).
Where [2] appears, read: cAMP, 37° C., 0.1% bovine casein (no human serum albumin), read-out: hGIPR EC50, nM (SEM, n).
The mark [3] stands for this setting: cAMP, 37° C., 0.1% bovine casein (no human serum albumin), geometric mean, read-out: hGCGR EC50, nM (SEM, n).

Like-named read-outs stand apart in the source and are kept apart here. *1 amine or outer side, *2 acyl side, *3 side chain or, on linkers, in order; H or OH if unused. Where a SMILES comes first, the peptide text is derived from it. Side-chain parts run from the residue outwards. [ ]: non-standard residue; d: D form. The star is where a group is joined. αMePhe(2-F) = C[C@](N)(Cc1ccccc1F)C(=O)O; γGlu = O=C(O)[C@H](CCC(=O)[*:2])N[*:1]; C14 diacid = O=C(O)CCCCCCCCCCCCC(=O)*; αMeY = C[C@](N)(Cc1ccc(O)cc1)C(=O)O; αMeL = CC(C)C[C@](C)(N)C(=O)O; Orn = NCCC[C@H](N)C(=O)O; AEEA = NCCOCCOCC(=O)O; Aib = CC(C)(N)C(=O)O

Drawing on patent US20230265151A1, “GIP/GLP1 CO-AGONIST COMPOUNDS” (priority 2020, published 2023), this text covers Emax and EC50 for three compounds.

T2 sequence (P47871 26-477): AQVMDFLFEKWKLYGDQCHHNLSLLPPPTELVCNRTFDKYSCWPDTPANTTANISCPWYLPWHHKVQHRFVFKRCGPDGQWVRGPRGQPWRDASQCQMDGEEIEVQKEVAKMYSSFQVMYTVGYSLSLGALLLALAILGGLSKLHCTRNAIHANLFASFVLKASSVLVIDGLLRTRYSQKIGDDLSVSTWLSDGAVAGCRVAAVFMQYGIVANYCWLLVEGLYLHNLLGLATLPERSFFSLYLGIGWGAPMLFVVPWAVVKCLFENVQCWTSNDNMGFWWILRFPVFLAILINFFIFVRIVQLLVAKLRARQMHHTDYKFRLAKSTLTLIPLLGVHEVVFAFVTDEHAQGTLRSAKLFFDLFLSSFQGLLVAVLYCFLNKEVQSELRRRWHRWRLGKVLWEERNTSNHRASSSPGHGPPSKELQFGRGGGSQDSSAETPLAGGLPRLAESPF
Chain of hGLP-1R (P43220 24-463): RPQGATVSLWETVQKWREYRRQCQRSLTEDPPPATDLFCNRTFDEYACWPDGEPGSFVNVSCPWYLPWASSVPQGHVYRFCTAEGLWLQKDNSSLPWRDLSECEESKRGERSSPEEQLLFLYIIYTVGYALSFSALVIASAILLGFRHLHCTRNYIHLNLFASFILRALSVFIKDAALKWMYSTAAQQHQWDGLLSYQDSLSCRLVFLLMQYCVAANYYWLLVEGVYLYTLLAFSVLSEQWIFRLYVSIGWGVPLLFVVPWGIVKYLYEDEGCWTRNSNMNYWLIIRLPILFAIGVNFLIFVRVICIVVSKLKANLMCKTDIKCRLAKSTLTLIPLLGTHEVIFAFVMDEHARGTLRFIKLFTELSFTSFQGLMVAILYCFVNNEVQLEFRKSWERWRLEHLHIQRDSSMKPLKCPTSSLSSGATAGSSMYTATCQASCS

What is called Emax is the maximal effect, on the per cent scale that the assay sets. Usually EC50 stands for the concentration at which the effect is half-maximal. Take `CCCCCCCCCCCC(=O)N[C@@H](CCC(=O)NCCOCCOCC(=O)NCCCC[C@H](NC(=O)[C@H](CCCN)NC(=O)[C@H](CC(=O)O)NC(=O)[C@H](CC(C)C)NC(=O)[C@](C)(CC(C)C)NC(=O)[C@@H](NC(=O)C(C)(C)NC(=O)[C@H](Cc1ccncc1)NC(=O)[C@H](CC(=O)O)NC(=O)[C@H](CO)NC(=O)[C@@H](NC(=O)[C@](C)(Cc1ccccc1F)NC(=O)[C@@H](NC(=O)CNC(=O)[C@H](CCC(=O)O)NC(=O)C(C)(C)NC(=O)[C@@H](N)Cc1ccc(O)cc1)[C@@H](C)O)[C@@H](C)O)[C@@H](C)CC)C(=O)N[C@@H](C)C(=O)N[C@@H](CCC(N)=O)C(=O)NC(C)(C)C(=O)N[C@@H](CCCCNC(=O)COCCOCCNC(=O)CC[C@H](NC(=O)CCCCCCCCCCC)C(=O)O)C(=O)N[C@@H](Cc1ccccc1)C(=O)N[C@H](C(=O)N[C@H](CCC(=O)O)C(=O)N[C@@](C)(Cc1ccc(O)cc1)C(=O)N[C@@H](CC(C)C)C(=O)N[C@H](C(=O)N[C@@H](CCC(=O)O)C(=O)NCC(=O)NCC(=O)N1CCC[C@H]1C(=O)N[C@@H](CO)C(=O)N[C@@H](CO)C(=O)NCC(=O)N[C@@H](C)C(=O)N1CCC[C@H]1C(=O)N1CCC[C@H]1C(=O)N1CCC[C@H]1C(=O)N[C@@H](CO)C(N)=O)[C@@H](C)CC)[C@@H](C)CC)C(=O)O` [Example 426]: the Emax on hGLP-1R is 97.2%; on hGIPR (HEK293, cAMP, 37° C., 0.1% bovine casein and 1.0% human serum albumin, percent of maximal response to GIP(1-42)NH2, read-out: hGIPR Emax, % ± SEM) it was 91.2%; on hGIPR (HEK293, cAMP, 37° C., 0.1% bovine casein, percent of maximal response to GIP(1-42)NH2, arithmetic mean, read-out: hGIPR Emax, % ± SEM), 93.3%. The EC50 is 0.206 nM on hGLP-1R (setting [1]); 29.7 nM on hGLP-1R (cAMP, 0.1% bovine casein and 1.0% human serum albumin, geometric mean (SEM, n), read-out: hGLP-1R EC50, nM (SEM, n)); 0.0191 nM on hGIPR (setting [2]); greater than 9950 nM at hGCGR (setting [3]); greater than 9950 nM on hGCGR (cAMP, 37° C., 0.1% bovine casein and 1.0% human serum albumin, geometric mean (SEM, n), read-out: hGCGR EC50, nM (SEM, n)).

With `CC[C@H](C)[C@H](NC(=O)[C@H](CCCN)NC(=O)[C@H](CC(=O)O)NC(=O)[C@H](CC(C)C)NC(=O)[C@](C)(CC(C)C)NC(=O)[C@@H](NC(=O)C(C)(C)NC(=O)[C@H](Cc1ccc(O)cc1)NC(=O)[C@H](CC(=O)O)NC(=O)[C@H](CO)NC(=O)[C@@H](NC(=O)[C@](C)(Cc1ccccc1F)NC(=O)[C@@H](NC(=O)CNC(=O)[C@H](CCC(=O)O)NC(=O)C(C)(C)NC(=O)[C@@H](N)Cc1ccc(O)cc1)[C@@H](C)O)[C@@H](C)O)[C@@H](C)CC)C(=O)N[C@@H](C)C(=O)N[C@@H](CCC(N)=O)C(=O)NC(C)(C)C(=O)N[C@@H](CCCCNC(=O)COCCOCCNC(=O)CC[C@H](NC(=O)CCCCCCCCCCCCC(=O)O)C(=O)O)C(=O)N[C@@H](Cc1ccccc1)C(=O)N[C@H](C(=O)N[C@H](CCC(=O)O)C(=O)N[C@@](C)(Cc1ccc(O)cc1)C(=O)N[C@@H](CC(C)C)C(=O)N[C@H](C(=O)N[C@@H](CCC(=O)O)C(=O)NCC(=O)NCC(=O)N1CCC[C@H]1C(=O)N[C@@H](CO)C(=O)N[C@@H](CO)C(=O)NCC(=O)N[C@@H](C)C(=O)N1CCC[C@H]1C(=O)N1CCC[C@H]1C(=O)N1CCC[C@H]1C(=O)N[C@@H](CO)C(=O)N[C@@H](CCCCNC(=O)COCCOCCNC(=O)CC[C@H](NC(=O)CCCCCCCCCCCCC(=O)O)C(=O)O)C(N)=O)[C@@H](C)CC)[C@@H](C)CC` [Example 371] (H-Y[Aib]EGT[αMePhe(2-F)]TSDY[Aib]I[αMeL]LD[Orn]IAQ[Aib]K([AEEA-γGlu-C14 diacid])FI[dE][αMeY]LIEGGPSSGAPPPSK([AEEA-γGlu-C14 diacid])-NH2), on hGLP-1R, the Emax was 112%. Besides, the EC50 at hGLP-1R (setting [1]) was 0.363 nM; at hGIPR (setting [2]) it was 0.0209 nM; at hGCGR (setting [3]), greater than 9950 nM.

Regarding `CC[C@H](C)[C@H](NC(=O)[C@H](CC(C)C)NC(=O)[C@](C)(Cc1ccc(O)cc1)NC(=O)[C@@H](CCC(=O)O)NC(=O)[C@@H](NC(=O)[C@H](Cc1ccccc1)NC(=O)[C@H](CCC(=O)O)NC(=O)C(C)(C)NC(=O)[C@H](CCC(N)=O)NC(=O)[C@H](C)NC(=O)[C@H](CCCCNC(=O)COCCOCCNC(=O)COCCOCCNC(=O)CCCCCCCCCOc1ccc(C(=O)O)cc1)NC(=O)[C@H](CCCN)NC(=O)[C@H](CC(=O)O)NC(=O)[C@H](CC(C)C)NC(=O)[C@](C)(CC(C)C)NC(=O)[C@@H](NC(=O)[C@H](CO)NC(=O)[C@H](Cc1ccncc1)NC(=O)[C@H](CC(=O)O)NC(=O)[C@H](CO)NC(=O)[C@@H](NC(=O)[C@](C)(Cc1ccccc1F)NC(=O)[C@@H](NC(=O)CNC(=O)[C@H](CCC(=O)O)NC(=O)C(C)(C)NC(=O)[C@@H](N)Cc1ccc(O)cc1)[C@@H](C)O)[C@@H](C)O)[C@@H](C)CC)[C@@H](C)CC)C(=O)N[C@@H](CCC(=O)O)C(=O)NCC(=O)NCC(=O)N[C@@H](CCCCNC(=O)COCCOCCNC(=O)COCCOCCNC(=O)CCCCCCCCCOc1ccc(C(=O)O)cc1)C(=O)N[C@@H](CO)C(=O)N[C@@H](CO)C(=O)NCC(=O)N[C@@H](C)C(=O)N1CCC[C@H]1C(=O)N1CCC[C@H]1C(=O)N1CCC[C@H]1C(=O)N[C@@H](CO)C(N)=O` [Example 10], the EC50 on hGLP-1R (hGLP-1R EC50, nM (SEM, n), 0.1% bovine casein and 1.0% human serum albumin, geometric mean) is 4.38 nM; on hGIPR (hGIPR EC50, nM (SEM, n), 0.1% bovine casein and 1.0% human serum albumin, 37° C.) it was 0.121 nM; at hGIPR (hGIPR EC50, nM (SEM, n), cAMP, incubated at 37° C., 0.1% bovine casein (no human serum albumin)), 0.0106 nM; on hGCGR (hGCGR EC50, nM (SEM, n), 0.1% bovine casein and 1.0% human serum albumin, 37° C., geometric mean), greater than 9950 nM; on hGCGR (hGCGR EC50, nM (SEM, n), cAMP, incubated at 37° C., 0.1% bovine casein (no human serum albumin), geometric mean) it was greater than 9950 nM. Also, the Emax on hGIPR (HEK293, read-out: hGIPR Emax, % ± SEM, 0.1% bovine casein and 1.0% human serum albumin, 37° C., percent of maximal response to GIP(1-42)NH2) came out at 84.9 ± 1.84%; at hGIPR (HEK293, read-out: hGIPR Emax, % ± SEM, percent of maximal response to GIP(1-42)NH2, 37° C., 0.1% bovine casein, arithmetic mean) it was 97.9 ± 1.99%.
